In ChEMBL document CHEMBL4613264, “Design, Synthesis, and Biological Evaluation of New Peripheral 5HT2A Antagonists for Nonalcoholic Fatty Liver Disease” (J Med Chem, 2020):
Blank lines part the entries; values can stand above or below the compound they belong to.

Experiments:
[1] = target: 5-hydroxytryptamine receptor 2A (Homo sapiens, UniProt P28223); test: Antagonist activity at 5HT2A receptor (unknown origin) expressed in HEK293 cells assessed as inhibition of serotonin hydrochloride-induced calcium flux preincubated for 1 hr followed by serotonin hydrochloride addition by calcium 6 dye based FLIPR assay; assay type: functional, cell-based
[2] = Plasma concentration in ICR mouse at 5 mg/kg, iv measured after 0.5 hrs by LC-MS/MS analysis; assay type: ADME, organism-based
[3] = Permeability of the compound by PAMPA; assay type: ADME; conditions: read-out: permeability
[4] = Drug level in ICR mouse brain at 5 mg/kg, iv measured after 0.5 hrs by LC-MS/MS analysis; assay type: ADME, organism-based; conditions: read-out: Drug uptake
[5] = Ratio of drug level in brain to plasma of ICR mouse at 5 mg/kg, iv measured after 0.5 hrs by LC-MS/MS analysis; assay type: ADME, organism-based; conditions: read-out: BPR
[6] = Ratio of drug level in brain to plasma of ICR mouse at 10 mg/kg, ip measured after 0.5 hrs by LC-MS/MS analysis; conditions: read-out: BPR
[7] = Drug level in ICR mouse brain at 10 mg/kg, ip measured after 0.5 hrs by LC-MS/MS analysis; conditions: read-out: Drug uptake
[8] = Plasma concentration in ICR mouse at 10 mg/kg, ip measured after 0.5 hrs by LC-MS/MS analysis

Sequence of 5-hydroxytryptamine receptor 2A (P28223 whole entry): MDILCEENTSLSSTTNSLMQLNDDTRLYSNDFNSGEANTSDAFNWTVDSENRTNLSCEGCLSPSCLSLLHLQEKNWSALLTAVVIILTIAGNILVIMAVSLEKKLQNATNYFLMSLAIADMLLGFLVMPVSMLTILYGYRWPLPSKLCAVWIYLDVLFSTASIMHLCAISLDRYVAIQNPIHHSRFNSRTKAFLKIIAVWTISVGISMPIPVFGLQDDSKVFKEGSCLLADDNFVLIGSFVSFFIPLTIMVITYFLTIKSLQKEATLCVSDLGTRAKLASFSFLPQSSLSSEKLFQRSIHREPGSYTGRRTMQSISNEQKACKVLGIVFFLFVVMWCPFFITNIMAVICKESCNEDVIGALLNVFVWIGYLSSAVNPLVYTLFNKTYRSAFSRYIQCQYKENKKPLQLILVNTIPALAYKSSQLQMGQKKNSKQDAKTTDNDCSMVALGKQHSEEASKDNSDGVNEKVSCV

SMILES: CC(C)COc1ccc(CNC(=O)N(Cc2ccc(F)cc2)C2CCN(C(=O)C[C@H](N)C(=O)O)CC2)cc1
IC50 [1]: 34.6 nM

SMILES: CC(C)COc1ccc(CNC(=O)N(Cc2ccc(F)cc2)C2CCN(C)CC2)cc1 [PIMAVANSERIN]
Kp at 0.5 h [6]: 4.98 | concentration at 0.5 h [7]: 3010 ng/g | concentration at 0.5 h [8]: 612 ng/mL

SMILES: CC(C)COc1ccc(CNC(=O)N(Cc2ccc(F)cc2)C2CCN(C(=O)CCC(=O)O)CC2)cc1
IC50 [1]: 317 nM

Second part, the compound after the results:

IC50 [1]: 0.87 nM
SMILES: CN1CCC(N(Cc2ccc(F)cc2)C(=O)NCc2ccc(OCC(O)CN3CCN(c4nsc5ccccc45)CC3)cc2)CC1 (stereo unspecified)

concentration at 0.5 h [2]: 455 ng/mL | Papp [3]: 4.79 ×10⁻⁶ cm/s | IC50 [1]: 0.39 nM | concentration at 0.5 h [4]: 741 ng/g | Kp at 0.5 h [5]: 1.63
SMILES: CN1CCC(N(Cc2ccc(F)cc2)C(=O)NCc2ccc(OCC(O)CN3CCC(c4noc5cc(F)ccc45)CC3)cc2)CC1 (stereo unspecified)
